Experimental findings from ChEMBL document CHEMBL4387712, “Development of the binding molecules for the RNA higher-order structures based on the guanine-recognition by the G-clamp” (Bioorg Med Chem Lett, 2019) are described below.

Test [1] is described as follows: Binding affinity to G0 RNA (unknown origin) at 10 nM by fluorescence spectra analysis.
Test [2] in a line: Binding affinity to stem-loop RNA (unknown origin) at 10 nM by fluorescence spectra analysis.
A short description of test [3]: Binding affinity to stem-duplex RNA (unknown origin) at 10 nM by fluorescence spectra analysis.
A short description of test [4]: Binding affinity to sh(-GUG-) RNA (unknown origin) assessed as increase in fluorescence at 10 nM by fluorescence spectra analysis relative to control.
Test [5] in a line: Binding affinity to sh(-CUA-) RNA (unknown origin) assessed as increase in fluorescence at 10 nM by fluorescence spectra analysis.
Test [6] is described as follows: Binding affinity to ssRNA-5 mer (unknown origin) assessed as increase in fluorescence at 10 nM by fluorescence spectra analysis.
The nature of test [7]: Binding affinity to sh(-CUG-) RNA (unknown origin) assessed as increase in fluorescence at 10 nM by fluorescence spectra analysis relative to control.
Test [8] is described as follows: Binding affinity to sh(-GUA-) RNA (unknown origin) assessed as increase in fluorescence at 10 nM by fluorescence spectra analysis relative to control.
Test [9] is described as follows: Binding affinity to sh(-GUG-) RNA (unknown origin) by fluorescence titration method.
Test [10] is described as follows: Binding affinity to sh(-CUG-) RNA (unknown origin) by fluorescence titration method.
Test [11] can be described thus: Binding affinity to sh(-GUA-) RNA (unknown origin) by fluorescence titration method.
The nature of test [12]: Binding affinity to sh(-GUG-) RNA (unknown origin) assessed as hypochromic effect at 10 uM by UV-vis spectral analysis.
The nature of test [13]: Binding affinity to sh(-CUA-) RNA (unknown origin) assessed as change in UV spectrum at 10 uM by UV-vis spectral analysis.
The nature of test [14]: Binding affinity to sh(-GUG-) RNA (unknown origin) at 10 uM by circular dichroism.
Test [15] can be described thus: Binding affinity to sh(-CUA-) RNA (unknown origin) at 10 uM by circular dichroism.
Test [16] is described as follows: Binding affinity to wild-type full length pre-miRNA-17 (unknown origin) assessed as increase in fluorescence intensity at 10 nM by fluorescence spectra analysis.
Test [17] can be described thus: Binding affinity to hairpin G2 RNA mutant (unknown origin) assessed as increase in fluorescence intensity at 10 nM by fluorescence spectra analysis.
Test [18] can be described thus: Binding affinity to mismatch G2 RNA mutant (unknown origin) assessed as increase in fluorescence intensity at 10 nM by fluorescence spectra analysis.
A short description of test [19]: Binding affinity to overhang G2 RNA mutant (unknown origin) assessed as increase in fluorescence intensity at 10 nM by fluorescence spectra analysis.
The nature of test [20]: Binding affinity to sh(-GUG-) RNA (unknown origin) assessed as bathochromic effect at 10 uM by UV-vis spectral analysis.
Test [21] in a line: Binding affinity to sh(-CUG-) RNA (unknown origin) at 10 nM by fluorescence spectra analysis.
A short description of test [22]: Binding affinity to sh(-CUA-) RNA (unknown origin) at 10 nM by fluorescence spectra analysis.
Test [23] can be described thus: Binding affinity to ssRNA-5 mer (unknown origin) at 10 nM by fluorescence spectra analysis.
Test [24] in a line: Binding affinity to sh(-GUA-) RNA (unknown origin) at 10 nM by fluorescence spectra analysis.
Test [25] is described as follows: Binding affinity to sh(-GUG-) RNA (unknown origin) at 10 nM by fluorescence spectra analysis.

The source made the active and inactive calls. The calls are words filed in the database; no cut-off is given here.

For orientation: Kd means the concentration at which binding is half-saturated. A lower Kd goes with a tighter complex. Regarding `CN(CCCNC(=O)Cn1cc2c(nc1=O)Nc1c(OCCN)cccc1O2)CCCNC(=O)Cn1cc2c(nc1=O)Nc1c(OCCN)cccc1O2`, the result in [1], in test [2], in test [3], in test [4], in test [12] and in [14] was Active. Also, the outcome in test [16], in test [17], in test [18], in test [19] and in test [20] was Active. Moreover, the fold change (FC) came to 7 in test [4], 4.1 in test [7] and 2.6 in [8]. Also, the result in [5], in test [6], in test [13] and in [15] was inactive. Further, the Kd in test [9] was determined as 9 nM; in test [10], 27 nM; in test [11], 103 nM.
For `CN(C)CCCNC(=O)Cn1cc2c(nc1=O)Nc1c(OCCN)cccc1O2`, the outcome in test [21] and in test [25] was Active. The outcome in test [22], in test [23] and in test [24] was inactive. Moreover, the Kd in [10] was found to be 155 nM; in test [11], 202 nM.
